According to PubChem BioAssay (NCI):
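Where inhibition never reached the appropriate level, the endpoint shown equals the highest concentration tested. Otherwise, values were interpolated linearly from a five-concentration, 48-hour dose response in 96-well plates. GI50 = concentration required for 50% inhibition of growth. TGI: concentration producing complete growth inhibition.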

How the values were obtained:
Assay in all cases: DTP human tumour cell line panel, 48 h
MOLT-4 leukemia = tested on: MOLT-4 leukemia
A498 renal = tested on: A498 renal
RPMI-8226 leukemia = tested on: RPMI-8226 leukemia
UO-31 renal = tested on: UO-31 renal
CCRF-CEM leukemia = tested on: CCRF-CEM leukemia
HOP-92 NSCLC = tested on: HOP-92 NSCLC
OVCAR-8 ovarian = tested on: OVCAR-8 ovarian
T-47D breast = tested on: T-47D breast
SNB-19 CNS = tested on: SNB-19 CNS
LOX IMVI melanoma = tested on: LOX IMVI melanoma
M14 melanoma = tested on: M14 melanoma
K-562 leukemia = tested on: K-562 leukemia
TK-10 renal = tested on: TK-10 renal
HCT-116 colon = tested on: HCT-116 colon
OVCAR-3 ovarian = tested on: OVCAR-3 ovarian
NCI-H226 lung = tested on: NCI-H226 lung
PC-3 prostate = tested on: PC-3 prostate
NCI/ADR-RES ovarian = tested on: NCI/ADR-RES ovarian
RXF 393 renal = tested on: RXF 393 renal
HOP-62 NSCLC = tested on: HOP-62 NSCLC
OVCAR-4 ovarian = tested on: OVCAR-4 ovarian
HCT-15 colon = tested on: HCT-15 colon
MDA-MB-435 = tested on: MDA-MB-435
SF-295 CNS = tested on: SF-295 CNS
SK-MEL-28 melanoma = tested on: SK-MEL-28 melanoma
SNB-75 CNS = tested on: SNB-75 CNS
NCI-H460 lung = tested on: NCI-H460 lung
KM12 colon = tested on: KM12 colon
SF-268 CNS = tested on: SF-268 CNS
NCI-H23 lung = tested on: NCI-H23 lung
HL-60(TB) leukemia = tested on: HL-60(TB) leukemia
SK-OV-3 ovarian = tested on: SK-OV-3 ovarian
786-0 renal = tested on: 786-0 renal
NCI-H522 lung = tested on: NCI-H522 lung
U251 CNS = tested on: U251 CNS
EKVX NSCLC = tested on: EKVX NSCLC
HT29 colon = tested on: HT29 colon
DU-145 prostate = tested on: DU-145 prostate
UACC-62 melanoma = tested on: UACC-62 melanoma
SK-MEL-2 melanoma = tested on: SK-MEL-2 melanoma
SW-620 colon = tested on: SW-620 colon
SR leukemia = tested on: SR leukemia
SK-MEL-5 melanoma = tested on: SK-MEL-5 melanoma
A549 NSCLC = tested on: A549 NSCLC
IGROV1 ovarian = tested on: IGROV1 ovarian
SN12C renal = tested on: SN12C renal
OVCAR-5 ovarian = tested on: OVCAR-5 ovarian
SF-539 CNS = tested on: SF-539 CNS
MDA-MB-231 breast = tested on: MDA-MB-231 breast
HS 578T breast = tested on: HS 578T breast
UACC-257 melanoma = tested on: UACC-257 melanoma
MCF7 breast = tested on: MCF7 breast
COLO 205 colon = tested on: COLO 205 colon
ACHN renal = tested on: ACHN renal
BT-549 breast = tested on: BT-549 breast
HCC-2998 colon = tested on: HCC-2998 colon
CAKI-1 renal = tested on: CAKI-1 renal

## O=C1OCC2=C1C(c1cccc(F)c1)c1cc3c(cc1N2CCO)CCC3 (stereo not drawn)
MOLT-4 leukemia
  GI50: 237 nM
  TGI: > 50000 nM
A498 renal
  GI50: 13.8 nM
  TGI: 261 nM
RPMI-8226 leukemia
  GI50: 167 nM
  TGI: 29700 nM
UO-31 renal
  GI50: 107 nM
  TGI: > 42500 nM
CCRF-CEM leukemia
  GI50: 168 nM
  TGI: > 50000 nM
HOP-92 NSCLC
  GI50: 1620 nM
  TGI: 49600 nM
OVCAR-8 ovarian
  GI50: 139 nM
  TGI: > 50000 nM
T-47D breast
  GI50: 2930 nM
  TGI: > 50000 nM
SNB-19 CNS
  GI50: 113 nM
  TGI: > 50000 nM
LOX IMVI melanoma
  GI50: 95.8 nM
  TGI: 10100 nM
M14 melanoma
  GI50: 49.1 nM
  TGI: > 20900 nM
K-562 leukemia
  GI50: 28 nM
  TGI: > 50000 nM
TK-10 renal
  GI50: 433 nM
  TGI: > 50000 nM
HCT-116 colon
  GI50: 81.9 nM
  TGI: > 50000 nM
OVCAR-3 ovarian
  GI50: 29.3 nM
  TGI: 3920 nM
NCI-H226 lung
  GI50: 1020 nM
  TGI: > 47600 nM
PC-3 prostate
  GI50: 65.7 nM
  TGI: > 50000 nM
NCI/ADR-RES ovarian
  GI50: 43.5 nM
  TGI: > 50000 nM
RXF 393 renal
  GI50: 91.4 nM
  TGI: > 50000 nM
HOP-62 NSCLC
  GI50: 798 nM
  TGI: > 50000 nM
OVCAR-4 ovarian
  GI50: 1760 nM
  TGI: > 50000 nM
HCT-15 colon
  GI50: 46.4 nM
  TGI: > 20200 nM
MDA-MB-435
  GI50: 16.6 nM
  TGI: 68.4 nM
SF-295 CNS
  GI50: 23.3 nM
  TGI: 10800 nM
SK-MEL-28 melanoma
  GI50: 655 nM
  TGI: > 50000 nM
SNB-75 CNS
  GI50: 13.6 nM
  TGI: 47400 nM
NCI-H460 lung
  GI50: 60.9 nM
  TGI: 6970 nM
KM12 colon
  GI50: 55.9 nM
  TGI: > 50000 nM
SF-268 CNS
  GI50: 122 nM
  TGI: 25200 nM
NCI-H23 lung
  GI50: 248 nM
  TGI: > 50000 nM
HL-60(TB) leukemia
  GI50: 77.3 nM
  TGI: 376 nM
SK-OV-3 ovarian
  GI50: 844 nM
  TGI: > 50000 nM
786-0 renal
  GI50: 71.8 nM
  TGI: > 50000 nM
NCI-H522 lung
  GI50: 16.9 nM
  TGI: 704 nM
U251 CNS
  GI50: 90.4 nM
  TGI: > 34000 nM
EKVX NSCLC
  GI50: 162 nM
  TGI: > 50000 nM
HT29 colon
  GI50: 92.2 nM
  TGI: > 18900 nM
DU-145 prostate
  GI50: 162 nM
  TGI: > 24400 nM
UACC-62 melanoma
  GI50: 22.7 nM
  TGI: 33400 nM
SK-MEL-2 melanoma
  GI50: 1070 nM
  TGI: 39000 nM
SW-620 colon
  GI50: 57.1 nM
  TGI: > 50000 nM
SR leukemia
  GI50: 28.5 nM
  TGI: 37400 nM
SK-MEL-5 melanoma
  GI50: 62.6 nM
  TGI: 2580 nM
A549 NSCLC
  GI50: 113 nM
  TGI: > 50000 nM
IGROV1 ovarian
  GI50: 81.7 nM
  TGI: > 50000 nM
SN12C renal
  GI50: 233 nM
  TGI: > 50000 nM
OVCAR-5 ovarian
  GI50: 205 nM
  TGI: > 50000 nM
SF-539 CNS
  GI50: 49.1 nM
  TGI: 434 nM
MDA-MB-231 breast
  GI50: 218 nM
  TGI: > 22200 nM
HS 578T breast
  GI50: 50.9 nM
  TGI: > 30600 nM
UACC-257 melanoma
  GI50: 12200 nM
  TGI: > 50000 nM
MCF7 breast
  GI50: 22.9 nM
  TGI: > 29000 nM
COLO 205 colon
  GI50: 152 nM
ACHN renal
  GI50: 129 nM
  TGI: > 50000 nM
BT-549 breast
  GI50: 161 nM
  TGI: 6950 nM
HCC-2998 colon
  GI50: 148 nM
  TGI: 11000 nM
CAKI-1 renal
  GI50: 38.1 nM
  TGI: > 33300 nM
